Laboratory results taken from patent US12378227B2, “Therapeutic cocrystals of 3-{[5-(azetidine-1-ylcarbonyl)pyrazin-2-yl]oxy}-5-{[(1S)-1-methyl-2-(methyloxy)ethyl]oxy)-N-(5-methylpyrazin-2-yl)benzamide” (CONDUIT UK MANAGEMENT LTD, priority 2021, dated 2025).

What was measured:
[1] = Solid-state stability study, ambient conditions, 12 months; assay type: physicochemical; details: clear glass vial
Description: A second stability study was carried out where 50 mg each of Cocrystal 1, Cocrystal 2, Cocrystal 3, Cocrystal 4, and Cocrystal 5A were separately placed in a clear glass vial which was then stored under ambient conditions for 12 months. After this time all the cocrystals remained as white solids with no signs of colour change.

[2] = Dry milling in ball mill, assessed by eye and by XRPD; assay type: physicochemical; details: dry milled, Retsch MM400 ball mill, 2×15 min at 30 Hz, stainless-steel jar
Text: In order to prepare cocrystal samples of similar particle size for a dissolution study and to assess the impact of milling on the crystallinity of the cocrystals, Cocrystal 1, Cocrystal 2, Cocrystal 3, Cocrystal 4 and Cocrystal 5a were dry milled using a ball mill. WO 2012/007758 discloses that to achieve satisfactory dissolution of the benzamide compound particle size reduction was required. […] Thus, a solid form of the benzamide compound that could undergo particle size reduction with an efficient recovery rate without the need to use a co-milling excipient is beneficial. The milled cocrystals, Cocrystal 1, Cocrystal 2, Cocrystal 3, Cocrystal 4 and Cocrystal 5a, were therefore assessed by eye for any potential agglomeration issues or excessive sticking to the walls of the milling vessel that might indicate potential adhesion/cohesion issues such as those of the pure benzamide compound.
200 mg each of Cocrystal 1, Cocrystal 2, Cocrystal 3, Cocrystal 4 and Cocrystal 5a were separately placed in a 25 ml stainless-steel milling jar containing a 1 cm stainless steel ball bearing. Each benzamide cocrystal of the invention was dry milled in a Retsch MM400 ball mill for 2×15 min at 30 Hz. The product was assessed by eye and by XRPD.

[3] = Solid-state stability study, accelerated storage 40° C./75% RH, 3 months; assay type: physicochemical; details: sealed container
Description: A study was carried out to examine the physical stability of the benzamide cocrystals of the invention with respect to solid form conversion or signs of decomposition over time under both ambient and accelerated conditions. 50 mg each of Cocrystal 1, Cocrystal 2, Cocrystal 4, and Cocrystal 5A were separately placed in a sealed container at 40° C. and 75% relative humidity and stored under these conditions for 3 months. After this time all samples remained unchanged in appearance with no signs of deliquescence and no signs of any colour change.

[4] = Polymorphism study (preparation methods 1 and 2 in different solvents); assay type: physicochemical; details: methods 1 and 2 using 2-propanol, ethyl acetate, acetonitrile, methyl ethyl ketone and water
Description: (§1) As AZD1656 is known to exist in six different crystalline forms an investigation was carried out to examine whether Cocrystal 1 could also exist in multiple polymorphic forms. Preparation methods 1 and 2 described above were carried out using 2-propanol, ethyl acetate, acetonitrile, methyl ethyl ketone and water.
as §1, with “Cocrystal 2” for “Cocrystal 1”

[5] = pure benzamide compound, as disclosed in WO 2012/007758; cited from earlier work

Row | SMILES | Appearance [1] | XRPD analysis (form change) [1] | Powder flow / agglomeration after milling (by eye) [2] | Recoverability from milling chamber / adhesion to walls (by eye) [2] | Signs of loss of crystallinity due to milling (XRPD) [2] | Appearance [3] | XRPD analysis (form change) [3] | Polymorphic forms obtained [4] | Adhesion on dry milling [5]
1 | COC[C@H](C)Oc1cc(Oc2cnc(C(=O)N3CCC3)cn2)cc(C(=O)Nc2cnc(C)cn2)c1.O=C(O)c1cc(O)ccc1O [Cocrystal 5A, 1:1 benzamide gentisic acid form 1] | No change | No change | free-flowing powder with no obvious signs of agglomeration | easily recoverable from the milling chamber with no excessive adhesion to the walls of the milling jar | None | No change | No change |  | 
2 | COC[C@H](C)Oc1cc(Oc2cnc(C(=O)N3CCC3)cn2)cc(C(=O)Nc2cnc(C)cn2)c1.O=C(O)/C=C/C(=O)O [Cocrystal 1, 1:1 benzamide fumaric acid] | No change | No change | free-flowing powder with no obvious signs of agglomeration | easily recoverable from the milling chamber with no excessive adhesion to the walls of the milling jar | None | No change | No change | single polymorphic form | 
3 | COC[C@H](C)Oc1cc(Oc2cnc(C(=O)N3CCC3)cn2)cc(C(=O)Nc2cnc(C)cn2)c1.O=C(O)CC(=O)O [Cocrystal 3, 1:1 benzamide malonic acid] | No change | No change | free-flowing powder with no obvious signs of agglomeration | easily recoverable from the milling chamber with no excessive adhesion to the walls of the milling jar | None |  |  |  | 
4 | COC[C@H](C)Oc1cc(Oc2cnc(C(=O)N3CCC3)cn2)cc(C(=O)Nc2cnc(C)cn2)c1.O=C(O)/C=C\C(=O)O [Cocrystal 2, 1:1 benzamide maleic acid] | No change | No change | free-flowing powder with no obvious signs of agglomeration | easily recoverable from the milling chamber with no excessive adhesion to the walls of the milling jar | None | No change | No change | single polymorphic form | 
5 | COC[C@H](C)Oc1cc(Oc2cnc(C(=O)N3CCC3)cn2)cc(C(=O)Nc2cnc(C)cn2)c1.O.O=C(O)C(O)C(O)C(=O)O [Cocrystal 4, 1:1 benzamide L-tartaric acid hydrate] | No change | No change | free-flowing powder with no obvious signs of agglomeration | easily recoverable from the milling chamber with no excessive adhesion to the walls of the milling jar | None | No change | No change |  | 
6 | COC[C@H](C)Oc1cc(Oc2cnc(C(=O)N3CCC3)cn2)cc(C(=O)Nc2cnc(C)cn2)c1 [benzamide compound, 3-{[5-(azetidine-1-ylcarbonyl)pyrazin-2-yl]oxy}-5-{[(1S)-1-methyl-2-(methyloxy)ethyl]oxy}-N-(5-methylpyrazin-2-yl)benzamide] |  |  |  |  |  |  |  |  | excessive adhesion to the stainless-steel walls of the milling vessel resulting in low recovery yields
